{"source": "patent US10905125B2", "about": "“Biocidal compositions and method of treating water using thereof” (BWA WATER ADDITIVES UK LIMITED, priority 2014, dated 2021)", "key": {"[1]": {"test_system": "Desulfovibrio vulgaris", "assay": "Log10 reduction of viable anaerobe cells in saline phosphate buffer suspension (serial dilution into API RP 38 media vials)", "assay_type": "cell-based", "settings": "for efficacy against the anaerobe Desulfovibrio vulgaris (in words): agent alone; for Log10 Reduction Anaerobes: pH 7.5 phosphate buffer, room temperature", "procedure": "(§1) A suspension of Desulfovibrio vulgaris plus Enterobacter aerogenes bacteria containing from 1××10^6 to 1×10^8 cells/mL was prepared in sterile pH 7.5 phosphate buffer containing varying levels of sodium chloride to give the desired total dissolved solids (TDS) concentration. Aliquots of this suspension were dosed with the indicated concentrations of a phosphonium compound and a hypohalite compound with the concentrations being measured as ppm by weight of the stated compounds added to the dosed suspension. The mixtures were allowed to stand at room temperature. At the designated contact times, each mixture was sampled to determine the total number of viable cells of both Desulfovibrio vulgaris and Enterobacter aerogenes by serial 10-fold dilution into API RP 38 media vials and anaerobic acid producing media vials, respectively. The vials were incubated at 37° C. for 72 hours. Results were recorded as cells per millilitre.\n(§2) Aqueous media inoculated with anaerobe and facultative anaerobe culture and having a TDS of 10,000 mg l^−1; 20,000 mg l^−1; or 30,000 mg l^−1 was treated with treatment agents comprising: (i) sodium hypochlorite; (ii) tri n-butyl n-tetradecyl phosphonium chloride (TTPC) or (iii) a combination of sodium hypochlorite and TTPC.\n(§3) TTPC was used in the form of Bellacide 355, an aqueous composition of TTPC and water consisting of water and […] of TTPC available from BWA Water Additives.\n(§4) Sodium hypochlorite was used in the form of Clorox, an aqueous composition of sodium hypochlorite and water consisting of water and 6% by weight sodium hypochlorite available from The Clorox Company.\n(§5) The efficacy of the treatment agents was evaluated by measuring the Log 10 Reduction of the anaerobe Desulfovibrio vulgaris and the facultative anaerobe Enterobacter aerogenes [after contact times of 10 and 30 minutes as detailed in Table 1. For TTPC and sodium hypochlorite the stated ppm values relate to the amount added. The addition of 35 ppm sodium hypochlorite to the aqueous system provided 2 ppm of free sodium hypochlorite in the treated aqueous system."}, "[2]": {"test_system": "Enterobacter aerogenes", "assay": "Log10 reduction of viable facultative anaerobe cells in saline phosphate buffer suspension (serial dilution into anaerobic acid producing media vials)", "assay_type": "cell-based", "settings": "for efficacy against the facultative anaerobe Enterobacter aerogenes (in words): agent alone; for Log10 Reduction Facultative Anaerobes: pH 7.5 phosphate buffer, room temperature", "procedure": "as §1, §2, §3, §4, §5"}, "[3]": {"settings": "TDS 30,000 mg l-1, contact times of 10 and 30 minutes"}, "[4]": {"settings": "TDS 20,000 mg l-1, contact time 30 minutes, listed as 3 (comparative)"}, "[5]": {"settings": "TDS 30,000 mg l-1, contact time 30 minutes"}, "[6]": {"settings": "TDS 20,000 mg l-1, contact time 30 minutes, listed as 4 (comparative)"}, "[7]": {"settings": "TDS 30,000 mg l-1, contact time 10 minutes"}}, "data": [{"smiles": "OCl", "note": "[Sodium hypochlorite, sodium hypochlorite]", "values": [{"measurement": "efficacy against the anaerobe Desulfovibrio vulgaris (in words)", "setting": "[1]; [3]", "result": "some efficacy"}, {"measurement": "efficacy against the facultative anaerobe Enterobacter aerogenes (in words)", "setting": "[2]; [3]", "result": "some efficacy"}]}, {"smiles": "CCCCCCCCCCCCCC[P+](CCCC)(CCCC)CCCC.[Cl-]", "note": "[Example 3]", "values": [{"measurement": "Log10 Reduction Anaerobes", "setting": "[1]; [4]", "result": 3}, {"measurement": "Log10 Reduction Facultative Anaerobes", "setting": "[2]; [4]", "result": 0}]}, {"smiles": "CCCCCCCCCCCCCC[P+](CCCC)(CCCC)CCCC.[Cl-]", "note": "[TTPC, tri n-butyl n-tetradecyl phosphonium chloride]", "values": [{"measurement": "efficacy against the anaerobe Desulfovibrio vulgaris (in words)", "setting": "[1]; [5]", "result": "ineffective"}, {"measurement": "efficacy against the facultative anaerobe Enterobacter aerogenes (in words)", "setting": "[2]; [5]", "result": "ineffective"}]}, {"smiles": "CCCCCCCCCCCCCC[P+](CCCC)(CCCC)CCCC.[Cl-]", "note": "[Example 4]", "values": [{"measurement": "Log10 Reduction Anaerobes", "setting": "[1]; [6]", "result": 6}, {"measurement": "Log10 Reduction Facultative Anaerobes", "setting": "[2]; [6]", "result": 5}]}, {"smiles": "CCCCCCCCCCCCCC[P+](CCCC)(CCCC)CCCC.[Cl-]", "note": "[Example 2]", "values": [{"measurement": "Log10 Reduction Facultative Anaerobes", "setting": "[2]; TDS 10,000 mg l-1, contact time 30 minutes, listed as 2 (comparative)", "result": 8}]}, {"smiles": "[Na+].[O-]Cl", "note": "[Example 6]", "values": [{"measurement": "Log10 Reduction Anaerobes", "setting": "[1]; [5]", "result": 3}, {"measurement": "Log10 Reduction Facultative Anaerobes", "setting": "[2]; [5]", "result": 3}]}, {"smiles": "[Na+].[O-]Cl", "note": "[Example 11]", "values": [{"measurement": "Log10 Reduction Anaerobes", "setting": "[1]; [7]", "result": 5}, {"measurement": "Log10 Reduction Facultative Anaerobes", "setting": "[2]; [7]", "result": 2}]}, {"smiles": "CCCCCCCCCCCCCC[P+](CCCC)(CCCC)CCCC.[Cl-]", "note": "[Example 5]", "values": [{"measurement": "Log10 Reduction Anaerobes", "setting": "[1]; [5]", "result": 0}, {"measurement": "Log10 Reduction Facultative Anaerobes", "setting": "[2]; [5]", "result": 0}]}, {"smiles": "CCCCCCCCCCCCCC[P+](CCCC)(CCCC)CCCC.[Cl-]", "note": "[Example 1]", "values": [{"measurement": "Log10 Reduction Anaerobes", "setting": "[1]; TDS 10,000 mg l-1, contact time 30 minutes", "result": 6}, {"measurement": "Log10 Reduction Facultative Anaerobes", "setting": "[2]; TDS 10,000 mg l-1, contact time 30 minutes, listed as 1 (comparative)", "result": 6}]}]}
